Like-named read-outs stand apart in the source and are kept apart here. Where no end group is shown, it is not given here.
Columns and labels:
Assay in all cases: Direct-binding FRET assay
JUN = JUN (Homo sapiens, UniProt P05412); design: made in house; settings: mean or single, read-out: Kd
Procedure: (§1) The direct binding assay was performed manually in 384-well plates and is similar to a previously described assay. Wells were filled with 20 μL of 1 mM TCEP-HCl. A 4 μM stock of acceptor protein was made fresh in 1 mM TCEP-HCl, and 20 μL was titrated in 2-fold dilutions over the wells. […] The direct-binding FRET data were fit as previously described. Briefly, the Kd of the designed peptide homodimer was experimentally determined and used with previously determined target homodimer Kd values to determine the heterodimer Kd. The homodimer Kd values used for the human bZIPs were from; experiments done by […] et al. used the same protein constructs for the human bZIP proteins, the same buffer conditions, and the same assay. The fitting used a system of ordinary differential equations to describe the concentrations of homo and heterodimers formed by the donor (D) and acceptor (A) as a function of the heterodimer Kd. MATLAB was used to simulate the binding experiment for different Kd values, and the value that gave the best agreement between simulation and experiment was assigned. A minimum 15% change in the donor fluorescence upon titrating the acceptor peptide from 0 to 1000 nM was required for a fit to be attempted. If this minimum was not met, the interaction was classified as “NS” for no signal change. […] For such curves, we removed the first five points and re-fit the data.

MAFG = MAFG (Homo sapiens, UniProt O15525); design: made in house; settings: read-out: Kd
Chain of MAFG (O15525 51-114 limits assumed): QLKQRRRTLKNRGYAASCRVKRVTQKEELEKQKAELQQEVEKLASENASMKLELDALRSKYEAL
Procedure: as §1

ATF6B = ATF6B (Homo sapiens, UniProt Q99941); design: made in house; settings: read-out: Kd
Chain of ATF6B (Q99941 325-388 limits assumed): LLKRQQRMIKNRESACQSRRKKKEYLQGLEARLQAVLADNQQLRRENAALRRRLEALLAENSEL
Procedure: as §1

FOS = FOS (Homo sapiens, UniProt P01100); design: made in house; settings: read-out: Kd
Chain of FOS (P01100 137-200 limits assumed): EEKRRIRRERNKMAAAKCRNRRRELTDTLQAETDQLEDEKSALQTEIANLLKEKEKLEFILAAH
Procedure: as §1

XBP1 = molecular target: T1, XBP1 (Homo sapiens, UniProt P17861); settings: 23°C, N-terminal rhodamine design, read-out: Kd
T1 construct: made in house
T1 sequence (P17861 70-133 limits assumed): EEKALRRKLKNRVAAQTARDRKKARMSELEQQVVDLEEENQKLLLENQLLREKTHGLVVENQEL
Procedure: as §1

NFE2L3 = molecular target: T2, NFE2L3 (Homo sapiens, UniProt Q9Y4A8); settings: mean or single, read-out: Kd
T2 construct: made in house
T2 sequence (Q9Y4A8 578-641 limits assumed): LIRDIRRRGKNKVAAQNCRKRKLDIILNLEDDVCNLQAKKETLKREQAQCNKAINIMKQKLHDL
Procedure: as §1

CREB1 = molecular target: T3, CREB1 (Homo sapiens, UniProt P16220); settings: mean or single, read-out: Kd
T3 construct: made in house
T3 sequence (P16220 269-327 limits assumed): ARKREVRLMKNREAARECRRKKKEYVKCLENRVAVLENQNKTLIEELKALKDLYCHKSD
Procedure: as §1

ATF3 = molecular target: T4, ATF3 (Homo sapiens, UniProt P18847); settings: read-out: Kd
T4 construct: made in house
T4 sequence (P18847 86-149 limits assumed): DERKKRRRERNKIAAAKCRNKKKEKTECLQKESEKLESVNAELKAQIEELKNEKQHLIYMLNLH
Procedure: as §1

ATF4 = molecular target: T5, ATF4 (Homo sapiens, UniProt P18848); settings: mean or single, read-out: Kd
T5 construct: made in house
T5 sequence (P18848 278-341 limits assumed): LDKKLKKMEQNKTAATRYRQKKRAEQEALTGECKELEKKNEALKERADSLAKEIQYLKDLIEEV
Procedure: as §1

NFE2 = molecular target: T6, NFE2 (Homo sapiens, UniProt Q16621); settings: read-out: Kd
T6 construct: made in house
T6 sequence (Q16621 266-329 limits assumed): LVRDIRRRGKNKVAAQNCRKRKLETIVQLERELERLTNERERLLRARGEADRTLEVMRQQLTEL
Procedure: as §1

MAFF = molecular target: T7, MAFF (Homo sapiens, UniProt Q9ULX9); settings: read-out: Kd
T7 construct: made in house
T7 sequence (Q9ULX9 51-114 limits assumed): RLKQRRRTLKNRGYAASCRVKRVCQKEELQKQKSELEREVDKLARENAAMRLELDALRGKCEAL
Procedure: as §1

[1] = 4°C, C-terminal rhodamine design
[2] = 4°C, N-terminal rhodamine design
[3] = 23°C, C-terminal rhodamine design
[4] = 23°C, N-terminal rhodamine design
[5] = 37°C, C-terminal rhodamine design
[6] = 37°C, N-terminal rhodamine design
[7] = 4°C, C-terminal fluorescein design as donor, TAMRA target titrated
[8] = 4°C, C-terminal rhodamine design, mean or single
[9] = 4°C, N-terminal rhodamine design, mean or single
[10] = 23°C, C-terminal fluorescein design as donor, TAMRA target titrated
[11] = 23°C, C-terminal rhodamine design, mean or single
[12] = 23°C, N-terminal rhodamine design, mean or single
[13] = 37°C, C-terminal fluorescein design as donor, TAMRA target titrated
[14] = 37°C, C-terminal rhodamine design, mean or single
[15] = 37°C, N-terminal rhodamine design, mean or single

Chain of JUN (P05412 252-315 limits assumed): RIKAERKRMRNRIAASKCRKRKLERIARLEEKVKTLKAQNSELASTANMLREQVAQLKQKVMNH

EREAQLENRVAHLKEKNQELKAQNLHLKEALSEAQNRNQELKNDA [XBP1-d1]
Kd (JUN; [1]): > 1000 nM | Kd (JUN; [2]): > 1000 nM | Kd (JUN; [3]): > 1000 nM | Kd (JUN; [4]): > 1000 nM | Kd (JUN; [5]): > 1000 nM | Kd (JUN; [6]): > 1000 nM | Kd (MAFG; [7]): > 1000 nM | Kd (MAFG; [8]): > 1000 nM | Kd (MAFG; [9]): > 1000 nM | Kd (MAFG; [10]): > 1000 nM | Kd (MAFG; [11]): > 1000 nM | Kd (MAFG; [12]): > 1000 nM | Kd (MAFG; [13]): > 1000 nM | Kd (MAFG; [14]): > 1000 nM | Kd (MAFG; [15]): > 1000 nM | Kd (ATF6B; [7]): > 1000 nM | Kd (ATF6B; 4°C, C-terminal rhodamine design, repeat 1): 200 to 1000 nM | Kd (ATF6B; 4°C, C-terminal rhodamine design, repeat 2): > 1000 nM | Kd (ATF6B; [10]): > 1000 nM | Kd (ATF6B; [12]): > 1000 nM | Kd (ATF6B; [13]): > 1000 nM | Kd (ATF6B; [14]): > 1000 nM | Kd (ATF6B; 37°C, C-terminal rhodamine design, repeat 1): > 1000 nM | Kd (ATF6B; 37°C, C-terminal rhodamine design, repeat 2): > 1000 nM | Kd (ATF6B; [15]): > 1000 nM | Kd (FOS; [7]): > 1000 nM | Kd (FOS; [8]): > 1000 nM | Kd (FOS; [9]): > 1000 nM | Kd (FOS; [10]): > 1000 nM | Kd (FOS; [11]): > 1000 nM | Kd (FOS; [12]): > 1000 nM | Kd (FOS; [13]): > 1000 nM | Kd (FOS; [14]): > 1000 nM | Kd (FOS; [15]): > 1000 nM | Kd (XBP1; repeat 1): > 1000 nM | Kd (XBP1; repeat 2): > 1000 nM | Kd (XBP1; repeat 3): > 1000 nM | Kd (NFE2L3; [1]): > 1000 nM | Kd (NFE2L3; [2]): > 1000 nM | Kd (NFE2L3; [3]): > 1000 nM | Kd (NFE2L3; [4]): > 1000 nM | Kd (NFE2L3; [5]): > 5000 nM | Kd (NFE2L3; [6]): > 1000 nM | Kd (CREB1; [1]): > 5000 nM | Kd (CREB1; [2]): > 1000 nM | Kd (CREB1; [3]): > 1000 nM | Kd (CREB1; [4]): > 1000 nM | Kd (CREB1; [5]): > 1000 nM | Kd (CREB1; [6]): > 1000 nM | Kd (ATF3; [7]): > 1000 nM | Kd (ATF3; [8]): > 1000 nM | Kd (ATF3; [9]): > 1000 nM | Kd (ATF3; [10]): > 1000 nM | Kd (ATF3; [11]): > 1000 nM | Kd (ATF3; [12]): > 1000 nM | Kd (ATF3; [13]): > 1000 nM | Kd (ATF3; [14]): > 1000 nM | Kd (ATF3; [15]): > 1000 nM | Kd (ATF4; [1]): > 1000 nM | Kd (ATF4; [2]): > 1000 nM | Kd (ATF4; [3]): > 1000 nM | Kd (ATF4; [4]): > 1000 nM | Kd (ATF4; [5]): > 1000 nM | Kd (ATF4; [6]): > 1000 nM | Kd (NFE2; [7]): > 1000 nM | Kd (NFE2; [8]): > 1000 nM | Kd (NFE2; [9]): > 1000 nM | Kd (NFE2; [10]): > 1000 nM | Kd (NFE2; [11]): > 1000 nM | Kd (NFE2; [12]): > 1000 nM | Kd (NFE2; [13]): > 1000 nM | Kd (NFE2; [14]): > 1000 nM | Kd (NFE2; [15]): > 1000 nM | Kd (MAFF; [7]): > 1000 nM | Kd (MAFF; [8]): > 1000 nM | Kd (MAFF; [9]): > 1000 nM | Kd (MAFF; [10]): > 1000 nM | Kd (MAFF; [11]): > 1000 nM | Kd (MAFF; [12]): > 1000 nM | Kd (MAFF; [13]): > 1000 nM | Kd (MAFF; [14]): > 1000 nM | Kd (MAFF; [15]): > 1000 nM
